Measurements published in patent US20250312469A1 (CANGET BIOTEKPHARMA, priority 2024, published 2025).
pKd: −log10 of the molar value.

Assays:
SK-ES-1 OS tumors = experiment: SK-ES-1 osteosarcoma xenograft; format: in vivo, SCID mice; conditions: weekly×4
CRPC LAPC9 tumors = experiment: LAPC9 CRPC tumor model; format: in vivo, SCID mice; conditions: 10 mg/kg i.p., 6 times over 2 weeks
CYP3A = experiment: in vitro; conditions: human, microsomes, pH 7.4
Experimental: (§1) The CYP reaction was initiated by adding a CYP probe substrate and incubating at 37° C. for 10-20 minutes, depending on the individual CYP isoform. The reaction was terminated with the addition of 400 μL ice-cold acetonitrile (ACN). […] Positive controls were performed in parallel using a known inhibitor of the individual CYP isoform. […] The samples were then transferred to 96-well plates and analyzed by LC-MS/MS (Appendix 1).

CYP2B6 = molecular target: T1, CYP2B6 (Homo sapiens, UniProt P20813); experiment: in vitro; conditions: human, microsomes, pH 7.4
T1 sequence (P20813 1-491): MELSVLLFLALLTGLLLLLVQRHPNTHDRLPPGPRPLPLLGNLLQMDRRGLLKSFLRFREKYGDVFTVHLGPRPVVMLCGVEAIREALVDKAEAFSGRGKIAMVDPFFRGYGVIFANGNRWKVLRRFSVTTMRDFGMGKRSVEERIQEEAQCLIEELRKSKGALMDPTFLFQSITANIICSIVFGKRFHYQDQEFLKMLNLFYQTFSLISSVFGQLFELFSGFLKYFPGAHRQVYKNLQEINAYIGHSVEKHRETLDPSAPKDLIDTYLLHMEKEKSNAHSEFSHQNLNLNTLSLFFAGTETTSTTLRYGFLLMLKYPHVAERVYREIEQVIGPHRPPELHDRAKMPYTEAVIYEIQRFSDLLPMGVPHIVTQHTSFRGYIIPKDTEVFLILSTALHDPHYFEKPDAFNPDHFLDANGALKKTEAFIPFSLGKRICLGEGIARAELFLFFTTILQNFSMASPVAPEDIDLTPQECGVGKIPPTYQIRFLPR
Experimental: as §1

in vitro = conditions: both, human, whole blood (sodium heparin), pH 7.4
DDX5 = DDX5 (Homo sapiens, UniProt P17844); experiment: Isothermal titration calorimetry (ITC), Flag-DDX5; format: binding; conditions: ITC, 25° C., 1×PBS pH7.4 with 8% DMSO
Sequence of DDX5 (P17844 whole entry): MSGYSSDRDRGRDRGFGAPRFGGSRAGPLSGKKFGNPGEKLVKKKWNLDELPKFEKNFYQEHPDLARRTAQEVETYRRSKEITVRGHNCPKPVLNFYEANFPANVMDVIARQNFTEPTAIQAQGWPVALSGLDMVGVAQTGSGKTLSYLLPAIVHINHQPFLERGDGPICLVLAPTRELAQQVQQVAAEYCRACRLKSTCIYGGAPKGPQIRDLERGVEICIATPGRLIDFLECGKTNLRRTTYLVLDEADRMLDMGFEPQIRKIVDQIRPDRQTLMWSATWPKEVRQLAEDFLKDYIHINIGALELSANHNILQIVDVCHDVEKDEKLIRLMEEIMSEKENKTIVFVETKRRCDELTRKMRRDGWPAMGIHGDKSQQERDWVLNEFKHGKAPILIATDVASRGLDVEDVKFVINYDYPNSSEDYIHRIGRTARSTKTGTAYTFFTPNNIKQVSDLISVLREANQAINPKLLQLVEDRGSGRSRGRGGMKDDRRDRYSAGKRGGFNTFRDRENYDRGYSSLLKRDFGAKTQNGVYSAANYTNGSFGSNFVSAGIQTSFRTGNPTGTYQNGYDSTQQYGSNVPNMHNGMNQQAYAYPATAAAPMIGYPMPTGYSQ

P-gp = P-gp (Homo sapiens, UniProt P08183); conditions: Caco-2; digoxin as substrate; 1.0 μM FL118 or 1.0 μM Valspodar
Sequence of P-gp (P08183 whole entry): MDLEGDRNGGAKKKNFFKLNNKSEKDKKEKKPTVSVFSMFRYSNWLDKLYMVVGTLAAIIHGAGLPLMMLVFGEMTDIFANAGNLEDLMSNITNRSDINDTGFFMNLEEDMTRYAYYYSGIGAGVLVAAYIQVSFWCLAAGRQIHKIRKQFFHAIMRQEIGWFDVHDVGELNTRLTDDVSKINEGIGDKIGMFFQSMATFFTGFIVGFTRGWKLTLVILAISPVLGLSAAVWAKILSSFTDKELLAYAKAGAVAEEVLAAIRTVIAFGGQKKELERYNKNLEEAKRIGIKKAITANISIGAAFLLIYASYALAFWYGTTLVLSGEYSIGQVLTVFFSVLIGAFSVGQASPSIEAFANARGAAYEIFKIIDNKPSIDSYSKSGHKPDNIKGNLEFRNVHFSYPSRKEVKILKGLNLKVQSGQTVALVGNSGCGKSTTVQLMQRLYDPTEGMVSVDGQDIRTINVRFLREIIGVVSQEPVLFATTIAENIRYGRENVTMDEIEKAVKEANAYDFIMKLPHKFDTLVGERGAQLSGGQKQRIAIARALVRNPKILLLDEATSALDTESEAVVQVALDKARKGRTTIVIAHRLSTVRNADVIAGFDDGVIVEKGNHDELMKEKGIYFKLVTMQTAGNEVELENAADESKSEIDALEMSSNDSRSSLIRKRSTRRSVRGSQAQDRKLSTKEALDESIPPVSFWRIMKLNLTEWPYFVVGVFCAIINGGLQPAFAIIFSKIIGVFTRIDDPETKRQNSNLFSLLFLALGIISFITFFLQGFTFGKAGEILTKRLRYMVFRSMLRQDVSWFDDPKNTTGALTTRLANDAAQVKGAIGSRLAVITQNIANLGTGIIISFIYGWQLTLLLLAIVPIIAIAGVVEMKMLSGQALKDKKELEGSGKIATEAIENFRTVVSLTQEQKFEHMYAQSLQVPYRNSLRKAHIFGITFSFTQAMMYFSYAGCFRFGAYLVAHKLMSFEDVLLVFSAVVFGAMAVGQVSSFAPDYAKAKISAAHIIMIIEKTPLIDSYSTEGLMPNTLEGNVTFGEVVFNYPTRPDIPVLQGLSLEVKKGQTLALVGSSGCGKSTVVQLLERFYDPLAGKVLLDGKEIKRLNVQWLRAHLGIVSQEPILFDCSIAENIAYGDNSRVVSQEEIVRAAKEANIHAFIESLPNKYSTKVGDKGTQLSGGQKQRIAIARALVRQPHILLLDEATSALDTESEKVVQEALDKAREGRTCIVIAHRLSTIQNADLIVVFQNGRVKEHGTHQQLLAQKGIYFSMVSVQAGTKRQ

With `COc1cccc2c1C(=O)c1c(O)c3c(c(O)c1C2=O)C[C@@](O)(C(=O)CO)C[C@@H]3O[C@H]1C[C@H](N)[C@H](O)[C@H](C)O1` [DOX, doxorubicin, reference compound] the antitumor efficacy (SK-ES-1 OS tumors) was “not seen”.
In the case of `CNC(=O)c1ccc(N2C(=S)N(c3ccc(C#N)c(C(F)(F)F)c3)C(=O)C2(C)C)cc1F` [Enza, enzalutamide, reference compound], the antitumor efficacy (CRPC LAPC9 tumors) was “not sensitive to Enza”.
For `CC(=O)N1CCN(c2ccc(OCC3COC(Cn4ccnc4)(c4ccc(Cl)cc4Cl)O3)cc2)CC1` (stereo not shown) [Ketoconazole], the “% Inhibition (Positive Control)” value (CYP3A) was 94.5%.
For `S=P(N1CC1)(N1CC1)N1CC1` [Thio-TEPA], the “% Inhibition (Positive Control)” value (CYP2B6) was 71.5%.
With `NS(=O)(=O)c1cc(C2(O)NC(=O)c3ccccc32)ccc1Cl` (stereo not shown) [chlorthalidone] the blood plasma ratio at 60 min, 1 μM (in vitro) was 8.73.
With `CC[C@@]1(O)C(=O)OCc2c1cc1n(c2=O)Cc2cc3c(CN(C)C)c(O)ccc3nc2-1` [topotecan, reference compound] the pKd (DDX5) was at most 5.97.
For `C/C=C/C[C@@H](C)C(=O)[C@H]1C(=O)N[C@@H](C(C)C)C(=O)N(C)CC(=O)N(C)[C@@H](CC(C)C)C(=O)N[C@@H](C(C)C)C(=O)N(C)[C@@H](CC(C)C)C(=O)N[C@@H](C)C(=O)N[C@H](C)C(=O)N(C)[C@@H](CC(C)C)C(=O)N(C)[C@@H](CC(C)C)C(=O)N(C)[C@@H](C(C)C)C(=O)N1C` [valspodar, reference compound], the “P-gp Inhibition Potential Classification” value (P-gp) was “Positive (ER≥2.0 without inhibitor, and reduced by ≥50% with inhibitor: Positive)”.
